Assay results taken from patent US4882349A, “Pyrrolacetic amides having antiinflammatory activity” (priority 1982, dated 1989).
Read-outs that look alike come from different tables or passages of the source.

Key:
[1] = tested on: brewers' yeast-induced hyperthermia; assay: antipyretic activity, brewers' yeast-induced hyperthermia; type: in vivo, albino male Wistar rats
Description: The animals were caged under the same conditions as those described in the preceding tests. Five hours following […], determined by a rectal probe connected to a YSI thermometer (73 ATP model, Yellow Springs Instrument Company) were selected for the experiment. The animals were then randomized into groups of 10 and the compounds under examination and the vehicle were administered via the oral and parenteral routes testing each dose in two groups. Body temperature was determined at one, two and three hours after administration of the substances. […]

gastric lesions = type: in vivo, male Wistar rats; settings: 4 consecutive days; for mean severity: scale 0 (no lesion) to 5 (perforations)
Description: Male Wistar rats weighing 180 g were randomized into groups of 10. Three doses of each compound were administered. One group received the vehicle alone (10 ml/kg b.w.). Each dose was given orally for four days consecutively and the rats were sacrificed on the fifth day for necropsy. The ulcerogenic effect was evaluated by the following scale:
(1) each haemorrhagic point at least 1 mm in diameter was scored as 1 lesion,
(2) haemorrhagic points less than 1 mm in diameter were scored in the following manner:
(c) 20 to 29=three lesions
By means of this scale it was possible to obtain the gastric damage index:
I=mean no. of lesions+mean of severity+% incidence/10

Rats = settings: rat, in vivo
[2] = tested on: phenyl-p-quinone-induced writhing (abdominal contractions); assay: phenylquinone-induced writhing test (analgesic activity), compound given 30 min before phenyl-p-quinone; type: in vivo, male Wistar rats
Description: Male Wistar rats weighing 110±5 g were caged for 10 days at 22±1° C. and given a balanced diet with free access to water. Twenty-four hours before the experiment the animals were randomized into groups of 10 and fasted for 14 hours but with free access to water. Each dose was tested in 3 groups of rats. Thirty minutes following administration either orally or parenterally of the products to be tested and the vehicle alone (0.5% carboxymethyl-cellulose in physiological saline) in the control animals, each rat was given 2 ml of a 5% absolute ethanol aqueous solution containing 0.36% of phenyl-p-quinone (Sigma Chemical Company) in order to provoke writhings. Fifteen minutes after administration of phenyl-p-quinone the number of contractions were counted for 20 minutes. The inhibiting effect of the compounds under examination on the abdominal contractions induced by phenyl-p-quinone was calculated by the following formula: % protection= [formula]
Table V lists the tested compounds, doses, routes of administration and their efficacy expressed as percentage of protection, taking into account that phenyl-p-quinone was administered thirty minutes after the compounds.

[3] = tested on: carrageenin-induced oedema; assay: carrageenin-induced oedema test (anti-inflammatory activity); type: in vivo, albino male Wistar rats
Description: This effect was evaluated by means of an experimental model reproducing acute inflammation: for this purpose the carrageenin- induced oedema test was employed following the method described by C.
Albino male Wistar rats weighing 140-160 g were caged for 10 days at 22±1° C. and given a balanced diet and water ad libitum. Eighteen hours before the experiment the animals were randomized into groups of ten and fasted but with free access to water. Each dose was tested in three groups of rats. Each compound was given either orally, by gavage, or parenterally--intraperitoneal injection--administering as follows:
controls: 0.5% carboxymethylcellulose suspension in physiological saline, 10 ml/kg
treated: suspension of the compounds to be tested in the same vehicle and at the same volume (10 ml/kg) used for the controls at the doses specified below.
One hour after administration of the compounds and vehicle, in order to provoke the oedema for determining the protective effect of the substances under examination, each rat received, by subcutaneous injection into the plantar surface of the left paw, 0.1 ml of 1% sterile carrageenin suspension.

Mice = settings: mouse, in vivo

In the case of Cc1ccc(C(=O)c2ccc(CC(=O)NNCC(=O)N3CCN(C)CC3)n2C)cc1 [Compound 1-o, 1-methyl-5-p-toluoylpyrrole-2-acetic acid-2 [N-(4-methyl-1-piperazinyl)acetamide] hydrazide], the “% Temperature decrease” value ([1]; 50 mg/Kg i.p., 1 h) is reported as 13.0%, the “% Temperature decrease” value ([1]; 50 mg/Kg i.p., 2 h) is reported as 27.5% and the “% Temperature decrease” value ([1]; 50 mg/Kg i.p., 3 h) is reported as 39.6%. The “% Temperature decrease” value ([1]; 50 mg/Kg per os, 1 h) was 12.0%, the “% Temperature decrease” value ([1]; 50 mg/Kg per os, 2 h) was 23.1% and the “% Temperature decrease” value ([1]; 50 mg/Kg per os, 3 h) was 35.2%. For the same compound, the “% Temperature decrease” value ([1]; 75 mg/Kg i.p., 1 h) was 18.0%, the “% Temperature decrease” value ([1]; 75 mg/Kg i.p., 2 h) was 27.0% and the “% Temperature decrease” value ([1]; 75 mg/Kg i.p., 3 h) was 49.6%. The “% Temperature decrease” value ([1]; 75 mg/Kg per os, 1 h) was 16.0%, the “% Temperature decrease” value ([1]; 75 mg/Kg per os, 2 h) was 25.2% and the “% Temperature decrease” value ([1]; 75 mg/Kg per os, 3 h) was 40.2%. For the same compound, the “% Temperature decrease” value ([1]; 100 mg/Kg i.p., 1 h) was 30.1%, the “% Temperature decrease” value ([1]; 100 mg/Kg i.p., 2 h) was 45.0% and the “% Temperature decrease” value ([1]; 100 mg/Kg i.p., 3 h) was 62.1%. For the same compound, the “% Temperature decrease” value ([1]; 100 mg/Kg per os, 1 h) was 29.1%, the “% Temperature decrease” value ([1]; 100 mg/Kg per os, 2 h) was 33.7% and the “% Temperature decrease” value ([1]; 100 mg/Kg per os, 3 h) was 59.0%. The “mean no. of lesions” value (gastric lesions; 50 mg/Kg orally) was 1, the gastric damage index (gastric lesions; 50 mg/Kg orally, I=mean no. of lesions+mean of severity+% incidence/10) was 9 and the mean severity (gastric lesions; 50 mg/Kg orally) was 1. The “mean no. of lesions” value (gastric lesions; 100 mg/Kg orally) was 2, the mean severity (gastric lesions; 100 mg/Kg orally) was 1 and the “mean no. of lesions” value (gastric lesions; 200 mg/Kg orally) was 2. The LD50 (Rats; ip) was 700 mg/kg, the LD50 (Rats; po) was 978 mg/kg and the “% Protection” value ([2]; 5 mg/Kg i.p.) was 35.1%. For the same compound, the “% Protection” value ([2]; 5 mg/Kg per os) was 29.3%, the “% Protection” value ([2]; 10 mg/Kg i.p.) was 63.9% and the “% Protection” value ([2]; 10 mg/Kg per os) was 60.4%. For the same compound, the “% Protection” value ([2]; 20 mg/Kg i.p.) was 87.0%, the “% Protection” value ([2]; 20 mg/Kg per os) was 86.2% and the oedema % inhibition ([3]; 25 mg/Kg per os, 2 h) was 37.1%. It also gave an oedema % inhibition ([3]; 25 mg/Kg per os, 4 h) of 42.0%, an oedema % inhibition ([3]; 25 mg/Kg per os, 6 h) of 44.0% and an oedema % inhibition ([3]; 25 mg/Kg per os, 24 h) of 12.1%. The oedema % inhibition ([3]; 25 mg/Kg per os, 48 h) was 0.0%, the oedema % inhibition ([3]; 25 mg/Kg per os, 72 h) was 0.0% and the oedema % inhibition ([3]; 25 mg/Kg, Table IV (route not given), 2 h) was 39.0%. The oedema % inhibition ([3]; 25 mg/Kg, Table IV (route not given), 4 h) was 37.1%, the oedema % inhibition ([3]; 25 mg/Kg, Table IV (route not given), 6 h) was 36.0% and the oedema % inhibition ([3]; 25 mg/Kg, Table IV (route not given), 24 h) was 11.1%. The oedema % inhibition ([3]; 25 mg/Kg, Table IV (route not given), 48 h) was 0.0%, the oedema % inhibition ([3]; 25 mg/Kg, Table IV (route not given), 72 h) was 0.0% and the oedema % inhibition ([3]; 50 mg/Kg per os, 2 h) was 49.2%. It also gave an oedema % inhibition ([3]; 50 mg/Kg per os, 4 h) of 50.1%, an oedema % inhibition ([3]; 50 mg/Kg per os, 6 h) of 50.0% and an oedema % inhibition ([3]; 50 mg/Kg per os, 24 h) of 22.1%. The oedema % inhibition ([3]; 50 mg/Kg per os, 48 h) was 4.5%, the oedema % inhibition ([3]; 50 mg/Kg per os, 72 h) was 0.0% and the oedema % inhibition ([3]; 50 mg/Kg, Table IV (route not given), 2 h) was 52.1%. It also gave an oedema % inhibition ([3]; 50 mg/Kg, Table IV (route not given), 4 h) of 55.0%, an oedema % inhibition ([3]; 50 mg/Kg, Table IV (route not given), 6 h) of 43.0% and an oedema % inhibition ([3]; 50 mg/Kg, Table IV (route not given), 24 h) of 17.9%. It also gave an oedema % inhibition ([3]; 50 mg/Kg, Table IV (route not given), 48 h) of 0.0%, an oedema % inhibition ([3]; 50 mg/Kg, Table IV (route not given), 72 h) of 0.0% and an oedema % inhibition ([3]; 100 mg/Kg per os, 2 h) of 70.1%. It also gave an oedema % inhibition ([3]; 100 mg/Kg per os, 4 h) of 73.4%, an oedema % inhibition ([3]; 100 mg/Kg per os, 6 h) of 77.5% and an oedema % inhibition ([3]; 100 mg/Kg per os, 24 h) of 33.5%. For the same compound, the oedema % inhibition ([3]; 100 mg/Kg per os, 48 h) was 8.6%, the oedema % inhibition ([3]; 100 mg/Kg per os, 72 h) was 0.0% and the oedema % inhibition ([3]; 100 mg/Kg, Table IV (route not given), 2 h) was 79.1%. For the same compound, the oedema % inhibition ([3]; 100 mg/Kg, Table IV (route not given), 4 h) was 78.0%, the oedema % inhibition ([3]; 100 mg/Kg, Table IV (route not given), 6 h) was 77.3% and the oedema % inhibition ([3]; 100 mg/Kg, Table IV (route not given), 24 h) was 24.1%. It also gave an oedema % inhibition ([3]; 100 mg/Kg, Table IV (route not given), 48 h) of 0.0%, an oedema % inhibition ([3]; 100 mg/Kg, Table IV (route not given), 72 h) of 0.0% and an LD50 (Mice; ip) of 590 mg/kg. The LD50 (Mice; po) was 910 mg/kg.

COc1ccc2c(c1)c(CC(=O)O)c(C)n2C(=O)c1ccc(Cl)cc1 [Indomethacin, reference compound] was tested, and the oedema % inhibition ([3]; 2.5 mg/Kg per os, 2 h) was 20.6%, the oedema % inhibition ([3]; 2.5 mg/Kg per os, 4 h) was 33.7% and the oedema % inhibition ([3]; 2.5 mg/Kg per os, 6 h) was 25.2%. For the same compound, the oedema % inhibition ([3]; 2.5 mg/Kg per os, 24 h) was 6.0%, the oedema % inhibition ([3]; 2.5 mg/Kg per os, 48 h) was 0.0% and the oedema % inhibition ([3]; 2.5 mg/Kg per os, 72 h) was 0.0%. For the same compound, the oedema % inhibition ([3]; 2.5 mg/Kg, Table IV (route not given), 2 h) was 25.7%, the oedema % inhibition ([3]; 2.5 mg/Kg, Table IV (route not given), 4 h) was 38.0% and the oedema % inhibition ([3]; 2.5 mg/Kg, Table IV (route not given), 6 h) was 30.0%. The oedema % inhibition ([3]; 2.5 mg/Kg, Table IV (route not given), 24 h) was 5.0%, the oedema % inhibition ([3]; 2.5 mg/Kg, Table IV (route not given), 48 h) was 0.0% and the oedema % inhibition ([3]; 2.5 mg/Kg, Table IV (route not given), 72 h) was 0.0%. It also gave an oedema % inhibition ([3]; 5 mg/Kg per os, 2 h) of 34.3%, an oedema % inhibition ([3]; 5 mg/Kg per os, 4 h) of 45.9% and an oedema % inhibition ([3]; 5 mg/Kg per os, 6 h) of 42.1%. For the same compound, the oedema % inhibition ([3]; 5 mg/Kg per os, 24 h) was 4.2%, the oedema % inhibition ([3]; 5 mg/Kg per os, 48 h) was 0.0% and the oedema % inhibition ([3]; 5 mg/Kg per os, 72 h) was 0.0%. For the same compound, the oedema % inhibition ([3]; 5 mg/Kg, Table IV (route not given), 2 h) was 39.0%, the oedema % inhibition ([3]; 5 mg/Kg, Table IV (route not given), 4 h) was 50.1% and the oedema % inhibition ([3]; 5 mg/Kg, Table IV (route not given), 6 h) was 48.0%. The oedema % inhibition ([3]; 5 mg/Kg, Table IV (route not given), 24 h) was 7.0%, the oedema % inhibition ([3]; 5 mg/Kg, Table IV (route not given), 48 h) was 0.0% and the oedema % inhibition ([3]; 5 mg/Kg, Table IV (route not given), 72 h) was 0.0%. The oedema % inhibition ([3]; 10 mg/Kg per os, 2 h) was 66.4%, the oedema % inhibition ([3]; 10 mg/Kg per os, 4 h) was 53.2% and the oedema % inhibition ([3]; 10 mg/Kg per os, 6 h) was 51.6%. The oedema % inhibition ([3]; 10 mg/Kg per os, 24 h) was 20.0%, the oedema % inhibition ([3]; 10 mg/Kg per os, 48 h) was 6.0% and the oedema % inhibition ([3]; 10 mg/Kg per os, 72 h) was 0.0%. The oedema % inhibition ([3]; 10 mg/Kg, Table IV (route not given), 2 h) was 70.8%, the oedema % inhibition ([3]; 10 mg/Kg, Table IV (route not given), 4 h) was 66.6% and the oedema % inhibition ([3]; 10 mg/Kg, Table IV (route not given), 6 h) was 65.0%. It also gave an oedema % inhibition ([3]; 10 mg/Kg, Table IV (route not given), 24 h) of 16.0%, an oedema % inhibition ([3]; 10 mg/Kg, Table IV (route not given), 48 h) of 0.0% and an oedema % inhibition ([3]; 10 mg/Kg, Table IV (route not given), 72 h) of 0.0%.
